Measurements: the NIST ThermoML archive (doi:10.1016/j.jct.2017.03.006)

Assay: xn = mol fraction of the nth substance listed
Details: 313.15 K, Liquid; for viscosity: Concentric cylinders viscometry; for mass density: Vibrating tube method

Cc1ccc(C)c(C)c1 [1,2,4-trimethylbenzene] + CCCCO
Details | mass density, 100 kPa [kg/m3] | mass density, 1000 kPa [kg/m3] | mass density, 5000 kPa [kg/m3] | mass density, 10000 kPa [kg/m3] | mass density, 20000 kPa [kg/m3] | mass density, 30000 kPa [kg/m3] | mass density, 40000 kPa [kg/m3] | mass density, 50000 kPa [kg/m3] | viscosity, 100 kPa [mPa·s]
x2 = 0 | 859 | 859.7 | 862.6 | 866 | 872.6 | 878.7 | 884.5 | 889.9 | –
x2 = 0.1005 | 853.7 | 854.4 | 857.3 | 860.8 | 867.5 | 873.8 | 879.6 | 885 | –
x2 = 0.2261 | 847.1 | 847.8 | 850.7 | 854.3 | 861 | 867.4 | 873.2 | 878.7 | –
x2 = 0.2999 | 843.2 | 843.9 | 846.9 | 850.5 | 857.2 | 863.6 | 869.5 | 875 | –
x2 = 0.3966 | 837.7 | 838.4 | 841.5 | 845.1 | 851.9 | 858.3 | 864.1 | 869.7 | –
x2 = 0.5289 | 829.9 | 830.6 | 833.7 | 837.3 | 844.1 | 850.6 | 856.5 | 862.1 | –
x2 = 0.53 | – | – | – | – | – | – | – | – | 0.882
x2 = 0.6367 | 822.9 | 823.6 | 826.7 | 830.4 | 837.3 | 843.7 | 849.7 | – | –
x2 = 0.637 | – | – | – | – | – | – | – | – | 0.994
x2 = 0.7249 | 816.8 | 817.5 | 820.6 | 824.3 | 831.2 | 837.7 | 843.7 | – | –
x2 = 0.7975 | – | – | – | – | – | – | – | – | 1.254
x2 = 0.7977 | 811.4 | 812 | 815.2 | 818.9 | 825.8 | 832.4 | 838.4 | – | –
x2 = 0.9131 | 802 | 802.8 | 805.9 | 809.7 | 816.7 | 823.2 | 829.4 | – | 1.516
